Source: patent US20240116985A1, “STAPLED PEPTIDES AND METHODS THEREOF” (priority 2020, published 2024)
Read-outs that look alike come from different tables or passages of the source.

What was measured:
[1] = molecular target: T1, full-length beta-Catenin (Uniprot ID P35222) (Homo sapiens, UniProt P35222); assay: Fluorescence polarization IC50 (beta-catenin / 5FAM-TCF4 10-53 competition); format: binding
T1 construct: 10 nM full-length beta-Catenin (Uniprot ID P35222)
T1 sequence (P35222 1-781): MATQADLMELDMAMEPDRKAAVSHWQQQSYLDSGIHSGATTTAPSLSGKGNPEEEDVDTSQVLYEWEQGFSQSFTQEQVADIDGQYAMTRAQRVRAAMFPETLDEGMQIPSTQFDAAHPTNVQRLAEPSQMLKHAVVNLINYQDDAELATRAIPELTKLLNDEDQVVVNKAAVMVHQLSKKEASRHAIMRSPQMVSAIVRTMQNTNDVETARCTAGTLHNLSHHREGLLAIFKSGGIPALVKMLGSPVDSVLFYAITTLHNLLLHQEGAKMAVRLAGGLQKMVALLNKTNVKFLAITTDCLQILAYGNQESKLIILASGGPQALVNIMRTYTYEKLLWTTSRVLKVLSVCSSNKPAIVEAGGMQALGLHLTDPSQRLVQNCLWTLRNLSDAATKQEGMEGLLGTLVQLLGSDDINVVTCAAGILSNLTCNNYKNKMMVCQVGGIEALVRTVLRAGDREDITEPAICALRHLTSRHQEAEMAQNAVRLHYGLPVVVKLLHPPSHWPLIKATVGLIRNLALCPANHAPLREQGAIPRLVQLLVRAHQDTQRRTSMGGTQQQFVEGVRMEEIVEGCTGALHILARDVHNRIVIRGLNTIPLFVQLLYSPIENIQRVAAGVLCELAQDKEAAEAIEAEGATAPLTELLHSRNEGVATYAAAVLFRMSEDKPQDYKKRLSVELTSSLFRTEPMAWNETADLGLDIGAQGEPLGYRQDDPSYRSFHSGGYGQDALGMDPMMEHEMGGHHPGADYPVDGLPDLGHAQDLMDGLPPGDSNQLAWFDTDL

CHI Log D procedure = format: physicochemical; conditions: for CHI Log D: pH 7.4; for chromatographic logD: pH 7.4, CHI Log D
[2] = molecular target: T2, full-length B-Catenin (Uniprot ID P35222) (Homo sapiens, UniProt P35222); assay: Alphascreen binding assay (beta-catenin / biotin-TCF4 10-53)
T2 construct: 65 nM full-length B-Catenin (Uniprot ID P35222)
T2 sequence (P35222 1-781): T1 sequence (P35222 1-781)
How it was run: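 Final concentrations: 65 nM full-length human β-catenin plus 10 nM biotin-TCF4(10-53) peptide, test peptide 3-fold from 10 uM to 5 nM, preincubated 15 min at 20 °C in Tris pH 8.0/250 mM NaCl buffer. Nickel-chelate AlphaScreen donor/acceptor beads then added for 60 min in the dark; duplicate reads fitted to 1:1 binding model with Hill slope.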

[3] = Table E2-1, read-out: beta-Catenin FP IC50
[4] = fluorescence polarization, beta-catenin, read-out: FP EC50

| SMILES | IC50 [1, 3] | IC50 [1, 4] | CHI Log D (CHI Log D procedure) | EC50 [2] | chromatographic logD (CHI Log D procedure) |
| --- | --- | --- | --- | --- | --- |
| CC(=O)N1CCC[C@]12CC=CCCCC1(CCCC=CCCCCCC[C@@](C)(C(=O)N[C@@H](Cc3ccccc3)C(=O)N[C@@H](Cc3c[nH]c4ccccc34)C(=O)N[C@@H](CCC(N)=O)C(N)=O)NC(=O)[C@H](C)NC(=O)[C@H](Cc3ccccc3)NC(=O)[C@H](C)NC(=O)[C@H](C)NC(=O)[C@H](CC(=O)O)NC(=O)[C@H](CC(=O)O)NC1=O)NC(=O)[C@H](C)NC(=O)[C@H](CC(=O)O)NC2=O (stereo partly drawn) [I-287, Ac-PL3-Asp-Ala-B5-Asp-Asp-Ala-Ala-Phe-Ala-S8-Phe-Trp-Gln-NH2] | 4.95 µM | 4.95 µM | 1.875 | 0.534 µM |  |
| CC(=O)N1CCC[C@]12CC=CCCCC1(CCCC=CCCCCCC[C@@](C)(C(=O)N[C@@H](Cc3ccccc3)C(=O)N[C@@H](Cc3c[nH]c4ccccc34)C(=O)N[C@@H](C)C(N)=O)NC(=O)[C@H](C(C)C)NC(=O)[C@H](Cc3ccccc3)NC(=O)[C@H](C)NC(=O)[C@H](C)NC(=O)[C@H](CC(=O)O)NC(=O)[C@H](CC(=O)O)NC1=O)NC(=O)[C@H](C)NC(=O)[C@H](CC(=O)O)NC2=O (stereo partly drawn) [I-291, Ac-PL3-Asp-Ala-B5-Asp-Asp-Ala-Ala-Phe-Val-S8-Phe-Trp-Ala-NH2] | 3.13 µM | 3.13 µM | 2.195 | 0.327 µM |  |
| CC(=O)N1CCC[C@]12CC=CCCCC1(CCCC=CCCCCCC[C@@](C)(C(=O)N[C@@H](Cc3ccccc3)C(=O)N[C@@H](Cc3c[nH]c4ccccc34)C(=O)N[C@@H](C)C(N)=O)NC(=O)[C@H](C(C)C)NC(=O)[C@H](Cc3ccccc3)NC(=O)[C@H](C)NC(=O)[C@H](C)NC(=O)[C@H](CC(=O)O)NC(=O)[C@H](CC(=O)O)NC1=O)NC(=O)[C@H](C)NC(=O)[C@H](CC(=O)O)NC2=O (stereo partly drawn) [I-292, Ac-PL3-Asp-Ala-B5-Asp-Asp-Ala-Ala-Phe-Val-S8-Phe-Trp-Ala-NH2] | 1.87 µM | 1.87 µM | 2.208 | 0.187 µM |  |
| CC(=O)N1CCC[C@]12CC=CCCCC1(CCCC=CCCCCCC[C@@](C)(C(=O)N[C@@H](Cc3ccccc3)C(=O)N[C@@H](Cc3csc4ccccc34)C(=O)N[C@@H](CCC(N)=O)C(N)=O)NC(=O)[C@H](C(C)C)NC(=O)[C@H](Cc3ccccc3)NC(=O)[C@H](C)NC(=O)[C@H](C)NC(=O)[C@H](CN(CC(=O)O)CC(F)(F)F)NC(=O)[C@H](CC(=O)O)NC1=O)NC(=O)[C@H](C)NC(=O)[C@H](CC(=O)O)NC2=O (stereo partly drawn) [I-293, Ac-PL3-Asp-Ala-B5-Asp-TfeGA-Ala-Ala-Phe-Val-S8-Phe-BztA-Gln-NH2] | 0.139 µM |  |  | 0.041 µM | 2.38 |
| CC(=O)N1CCC[C@]12CC=CCCCC1(CCCC=CCCCCCC[C@@](C)(C(=O)N[C@@H](Cc3ccccc3)C(=O)N[C@@H](Cc3csc4ccccc34)C(=O)N[C@@H](CCC(N)=O)C(N)=O)NC(=O)[C@H](CCC(N)=O)NC(=O)[C@H](Cc3ccccc3)NC(=O)[C@H](C)NC(=O)[C@H](C)NC(=O)[C@H](CC(=O)O)NC(=O)[C@H](CC(=O)O)NC1=O)NC(=O)[C@H](C)NC(=O)[C@H](CC(=O)O)NC2=O (stereo partly drawn) [I-294, Ac-PL3-Asp-Ala-B5-Asp-Asp-Ala-Ala-Phe-Gln-S8-Phe-BztA-Gln-NH2] | 0.13 µM |  |  | 0.04 µM | 2 |
| CC(=O)N1CCC[C@]12CC=CCCCC1(CCCC=CCCCCCC[C@@](C)(C(=O)N[C@@H](Cc3ccccc3)C(=O)N[C@@H](Cc3csc4ccccc34)C(=O)N[C@@H](CCC(N)=O)C(N)=O)NC(=O)[C@H](CCC(N)=O)NC(=O)[C@H](Cc3ccccc3)NC(=O)[C@H](C)NC(=O)[C@H](C)NC(=O)[C@H](Cc3ccc4ccccc4c3)NC(=O)[C@H](CC(=O)O)NC1=O)NC(=O)[C@H](C)NC(=O)[C@H](CC(=O)O)NC2=O (stereo partly drawn) [I-295, Ac-PL3-Asp-Ala-B5-Asp-2NapA-Ala-Ala-Phe-Gln-S8-Phe-BztA-Gln-NH2] | 5 µM |  |  | 1.18 µM | 2.66 |
| CC(=O)N1CCC[C@]12CC=CCCCC1(CCCC=CCCCCCC[C@@](C)(C(=O)N[C@@H](Cc3ccccc3)C(=O)N[C@@H](Cc3csc4ccccc34)C(=O)N[C@@H](C)C(N)=O)NC(=O)[C@H](CCC(N)=O)NC(=O)[C@H](Cc3ccccc3)NC(=O)[C@H](C)NC(=O)[C@H](C)NC(=O)[C@H](CC(=O)O)NC(=O)[C@H](CC(=O)O)NC1=O)NC(=O)[C@H](CCO)NC(=O)[C@H](CC(=O)O)NC2=O (stereo partly drawn) [I-299, Ac-PL3-Asp-Hse-B5-Asp-Asp-Ala-Ala-Phe-Gln-S8-Phe-BztA-Ala-NH2] | 1.3 µM |  |  | 0.189 µM | 2 |
| CC(=O)N1CCC[C@]12CC=CCCCC1(CCCC=CCCCCCC[C@@](C)(C(=O)N[C@@H](Cc3ccccc3)C(=O)N[C@@H](Cc3c[nH]c4ccccc34)C(=O)N[C@@H](CCC(N)=O)C(N)=O)NC(=O)[C@H](C(C)C)NC(=O)[C@H](Cc3ccc(Cl)cc3)NC(=O)[C@H](C)NC(=O)[C@H](C)NC(=O)[C@H](CC(=O)O)NC(=O)[C@H](CC(=O)O)NC1=O)NC(=O)[C@H](C)NC(=O)[C@H](CC(=O)O)NC2=O (stereo partly drawn) [I-309, Ac-PL3-Asp-Ala-B5-Asp-Asp-Ala-Ala-4C1F-Val-S8-Phe-Trp-Gln-NH2] | 3.12 µM | 3.12 µM | 2.05 | 0.181 µM |  |
| CC(=O)N1CCC[C@]12CC=CCCCC1(CCCC=CCCCCCC[C@@](C)(C(=O)N[C@@H](Cc3ccccc3)C(=O)N[C@@H](Cc3c[nH]c4ccccc34)C(=O)N[C@@H](C)C(N)=O)NC(=O)[C@H](CCC(N)=O)NC(=O)[C@H](Cc3ccccc3)NC(=O)[C@H](C)NC(=O)[C@H](C)NC(=O)[C@H](CC(=O)O)NC(=O)[C@H](CC(=O)O)NC1=O)NC(=O)[C@H](C)NC(=O)[C@H](CC(=O)O)NC2=O (stereo partly drawn) [I-316, Ac-PL3-Asp-Ala-B5-Asp-Asp-Ala-Ala-Phe-Gln-S8-Phe-Trp-Ala-NH2] | 3.98 µM |  |  | 0.136 µM | 1.91 |
| CC(=O)N1CCC[C@]12CC=CCCCC1(CCCC=CCCCCCC[C@@](C)(C(=O)N[C@@H](Cc3ccccc3F)C(=O)N[C@@H](Cc3c[nH]c4ccccc34)C(=O)N[C@@H](CCC(N)=O)C(N)=O)NC(=O)[C@H](C(C)C)NC(=O)[C@H](Cc3ccccc3)NC(=O)[C@H](C)NC(=O)[C@H](C)NC(=O)[C@H](CC(=O)O)NC(=O)[C@H](CC(=O)O)NC1=O)NC(=O)[C@H](C)NC(=O)[C@H](CC(=O)O)NC2=O (stereo partly drawn) [I-318, Ac-PL3-Asp-Ala-B5-Asp-Asp-Ala-Ala-Phe-Val-S8-2FF-Trp-Gln-NH2] | 4.63 µM | 4.63 µM | 2.001 | 0.121 µM |  |
| CC(=O)N1CCC[C@]12CC=CCCCC1(CCCC=CCCCCCC[C@@](C)(C(=O)N[C@@H](Cc3ccccc3F)C(=O)N[C@@H](Cc3c[nH]c4ccccc34)C(=O)N[C@@H](CCC(N)=O)C(N)=O)NC(=O)[C@H](C(C)C)NC(=O)[C@H](Cc3ccccc3)NC(=O)[C@H](C)NC(=O)[C@H](C)NC(=O)[C@H](CC(=O)O)NC(=O)[C@H](CC(=O)O)NC1=O)NC(=O)[C@H](C)NC(=O)[C@H](CC(=O)O)NC2=O (stereo partly drawn) [I-319, Ac-PL3-Asp-Ala-B5-Asp-Asp-Ala-Ala-Phe-Val-S8-2FF-Trp-Gln-NH2] | 1.42 µM | 1.42 µM | 2.019 | 0.054 µM |  |
| CC(=O)N1CCC[C@]12CC=CCCCC1(CCCC=CCCCCCC[C@@](C)(C(=O)N[C@@H](Cc3ccccc3)C(=O)N[C@@H](Cc3c[nH]c4ccccc34)C(=O)N[C@@H](CCC(N)=O)C(N)=O)NC(=O)[C@H](C(C)C)NC(=O)[C@H](Cc3ccc(N)cc3)NC(=O)[C@H](C)NC(=O)[C@H](C)NC(=O)[C@H](CC(=O)O)NC(=O)[C@H](CC(=O)O)NC1=O)NC(=O)[C@H](C)NC(=O)[C@H](CC(=O)O)NC2=O (stereo partly drawn) [I-323, Ac-PL3-Asp-Ala-B5-Asp-Asp-Ala-Ala-4AmPhe-Val-S8-Phe-Trp-Gln-NH2] | 3.47 µM | 3.47 µM | 1.953 | 0.092 µM |  |
